Data from patent publication US11571423B2, “Small molecule modulators of human sting” (Curadev Pharma Limited, priority 2017, dated 2023).

How the values were obtained:
[1] = system: NF-κB pathway; test: Reporter gene expression assay in THP1-Dual cells, NFkB axis (secreted SEAP); assay type: cell-based, human; conditions: Homo sapiens, 20 hr stimulation, EC50 range class, read-out: THP-NFκB activity
Method in brief: (§1)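 Human THP-1 monocyte-derived cells with two inducible reporters: 5×10^5 cells seeded and stimulated with compounds for 20 hr. SEAP (QUANTI-Blue) and Lucia luciferase (QUANTI-Luc) measured in supernatant; EC50 values reported as ranges.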

[2] = target: hSTING(HAQ) (Homo sapiens, UniProt Q86WV6, G230A/H232R/R293Q/R71H); test: Luciferase reporter assay in HEK293T-hSTING-Luciferase cells, HAQ polymorph; assay type: cell-based; conditions: HAQ polymorph of human STING, EC50 range class
Chain of hSTING(HAQ) (Q86WV6 whole entry R71H/G230A/H232R/R293Q): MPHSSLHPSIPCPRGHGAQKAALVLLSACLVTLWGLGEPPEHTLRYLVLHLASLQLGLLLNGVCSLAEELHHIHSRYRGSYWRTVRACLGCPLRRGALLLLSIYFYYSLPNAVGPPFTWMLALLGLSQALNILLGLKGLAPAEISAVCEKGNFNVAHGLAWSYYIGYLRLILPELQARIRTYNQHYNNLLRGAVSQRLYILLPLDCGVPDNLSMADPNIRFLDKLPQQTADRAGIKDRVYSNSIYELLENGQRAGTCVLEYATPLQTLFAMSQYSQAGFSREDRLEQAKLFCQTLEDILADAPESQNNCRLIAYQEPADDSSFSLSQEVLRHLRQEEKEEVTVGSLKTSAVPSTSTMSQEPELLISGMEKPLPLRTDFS
Method in brief: (§2)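 HEK293T cells stably co-express the hSTING variant (hEF1-HTLV promoter) and an ISRE/ISG54 IRF-inducible luciferase reporter. Clones with minimal ligand-independent activation were used. Cells were stimulated with compounds for 20 hr, and secreted luciferase in the supernatant was read by luminescence to give EC50.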

[3] = target: cynomolgus monkey STING protein (Macaca fascicularis, UniProt A0A2R3XZA6); test: Luciferase reporter assay, cynomolgus monkey STING overexpressed in HEK293T cells; assay type: cell-based; conditions: cynomolgus monkey STING overexpressed in HEK293T cells; read-out: Cynomolgus monkey STING activity (EC50 range)
Chain of cynomolgus monkey STING protein (A0A2R3XZA6 entry or part of it): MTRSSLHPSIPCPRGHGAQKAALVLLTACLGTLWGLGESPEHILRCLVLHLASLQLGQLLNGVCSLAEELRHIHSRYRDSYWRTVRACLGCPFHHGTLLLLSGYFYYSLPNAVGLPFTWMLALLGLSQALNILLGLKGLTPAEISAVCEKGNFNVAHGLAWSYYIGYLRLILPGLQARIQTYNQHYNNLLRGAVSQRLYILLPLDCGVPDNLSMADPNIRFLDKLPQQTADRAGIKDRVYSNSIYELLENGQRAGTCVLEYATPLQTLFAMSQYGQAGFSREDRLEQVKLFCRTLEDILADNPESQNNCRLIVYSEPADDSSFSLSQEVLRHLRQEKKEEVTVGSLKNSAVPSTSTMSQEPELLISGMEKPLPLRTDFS
Method in brief: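 HEK293T cells overexpressing cynomolgus STING with a secreted luciferase reporter were stimulated with compound for 20 hr. Supernatant reporter activity was then measured by Quanti-Luc luminescence, and EC50 values were derived.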

[4] = system: IRF pathway; test: Reporter gene expression assay in THP1-Dual cells, IRF axis (secreted Lucia luciferase); assay type: cell-based, human; conditions: Homo sapiens, 20 hr stimulation, EC50 range class, read-out: THP-IRF activity
Method in brief: as §1

[5] = target: hSTING(R232) (Homo sapiens, UniProt Q86WV6, H232R); test: Luciferase reporter assay in HEK293T-hSTING-Luciferase cells, R232 (wild type) human STING; assay type: cell-based; conditions: 20 hr stimulation, read-out: R232 human activity (EC50 range)
Chain of hSTING(R232) (Q86WV6 whole entry H232R): as the sequence (Q86WV6 whole entry R71H/G230A/H232R/R293Q) above, with H71R, A230G, Q293R counted along it
Method in brief: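 Clonal HEK293T cells stably expressing STING from a pUNO-1 plasmid plus an ISRE/ISG54-driven secreted luciferase reporter; 5×10^5 cells stimulated with compound for 20 hr. Supernatant luciferase read by luminescence, giving fold-induction over baseline and EC50.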

[6] = target: hSTING(H232) (Homo sapiens, UniProt Q86WV6); test: Luciferase reporter assay in HEK293T-hSTING-Luciferase cells, H232/REF polymorph; assay type: cell-based; conditions: H232/REF polymorph of human STING, EC50 range class
Chain of hSTING(H232) (Q86WV6 whole entry): as the sequence (Q86WV6 whole entry R71H/G230A/H232R/R293Q) above, with H71R, A230G, R232H, Q293R counted along it
Method in brief: as §2

| SMILES | EC50 [1] [µM] | EC50 [2] [µM] | EC50 [3] [µM] | EC50 [4] [µM] | EC50 [5] [µM] | EC50 [6] [µM] |
| --- | --- | --- | --- | --- | --- | --- |
| C[C@H]1c2ccc(C(=O)NCc3c(F)cc(F)cc3F)cc2N(Cc2c(F)ccc(N)c2Cl)C(=O)N1C [Example 188, (S)-1-(3-amino-2-chloro-6-fluorobenzyl)-3,4-dimethyl-2-oxo-N-(2,4,6-trifluorobenzyl)-1,2,3,4-tetrahydroquinazoline-7-carboxamide] | < 1 | < 1 | < 1 | < 1 | < 1 | < 1 |
| C[C@H]1c2ccc(C(=O)NCc3c(F)cc(F)cc3F)cc2N(Cc2c(F)cncc2Br)C(=O)N1C [Example 232, (S)-1-((3-bromo-5-fluoropyridin-4-yl)methyl)-3,4-dimethyl-2-oxo-N-(2,4,6-trifluorobenzyl)-1,2,3,4-tetrahydroquinazoline-7-carboxamide] | < 1 | < 1 | < 1 | < 1 | < 1 | < 1 |
| COc1ccc(F)c(F)c1CN1C(=O)N(C)[C@@H](C)c2ccc(C(=O)NCc3c(F)cc(F)cc3F)cc21 [Example 241, (S)-1-(2,3-difluoro-6-methoxybenzyl)-3,4-dimethyl-2-oxo-N-(2,4,6-trifluorobenzyl)-1,2,3,4-tetrahydroquinazoline-7-carboxamide] | < 1 | < 1 | < 1 | < 1 | < 1 | < 1 |
| C[C@H]1c2ccc(C(=O)NCc3c(F)cc(F)cc3F)cc2N(Cc2c(O)ccc(F)c2F)C(=O)N1C [Example 242, (S)-1-(2,3-difluoro-6-hydroxybenzyl)-3,4-dimethyl-2-oxo-N-(2,4,6-trifluorobenzyl)-1,2,3,4-tetrahydroquinazoline-7-carboxamide] | < 1 | < 1 | < 1 | < 1 | < 1 | < 1 |
| C[C@H]1c2ccc(C(=O)NCc3c(F)cc(F)cc3F)cc2N(Cc2c(F)ccc(OCCCO)c2F)C(=O)N1C [Example 257, (S)-1-(2,6-difluoro-3-(3-hydroxypropoxy)benzyl)-3,4-dimethyl-2-oxo-N-(2,4,6-trifluorobenzyl)-1,2,3,4-tetrahydroquinazoline-7-carboxamide] | < 1 | < 1 | 1 to 10 | < 1 | < 1 | < 1 |
| Cc1nccc(CN2C(=O)N(C)[C@@H](C)c3ccc(C(=O)NCc4c(F)cc(F)cc4F)cc32)c1F [Example 261, (S)-1-((3-fluoro-2-methylpyridin-4-yl)methyl)-3,4-dimethyl-2-oxo-N-(2,4,6-trifluorobenzyl)-1,2,3,4-tetrahydroquinazoline-7-carboxamide] | < 1 | < 1 | < 1 | < 1 | < 1 | < 1 |
| C[C@H]1c2ccc(C(=O)NCc3c(F)cc(F)cc3F)cc2N(Cc2cc(O)ccc2F)C(=O)N1C [Example 262, (S)-1-(2-fluoro-5-hydroxybenzyl)-3,4-dimethyl-2-oxo-N-(2,4,6-trifluorobenzyl)-1,2,3,4-tetrahydroquinazoline-7-carboxamide] | < 1 | < 1 | < 1 | < 1 | < 1 | < 1 |
| C[C@H]1c2ccc(C(=O)NCc3c(F)cc(F)cc3F)cc2N(Cc2cc(O)cc(F)c2F)C(=O)N1C [Example 281, (S)-1-(2,3-difluoro-5-hydroxybenzyl)-3,4-dimethyl-2-oxo-N-(2,4,6-trifluorobenzyl)-1,2,3,4-tetrahydroquinazoline-7-carboxamide] | < 1 | < 1 | < 1 | < 1 | < 1 | < 1 |
| C[C@H]1c2ccc(C(=O)NCc3c(F)cc(F)cc3F)cc2N(Cc2cc(OCCCO)cc(F)c2F)C(=O)N1C [Example 283, (S)-1-(2,3-difluoro-5-(3-hydroxypropoxy)benzyl)-3,4-dimethyl-2-oxo-N-(2,4,6-trifluorobenzyl)-1,2,3,4-tetrahydroquinazoline-7-carboxamide] | < 1 | < 1 | 1 to 10 | < 1 | < 1 | < 1 |
